Measurements taken from article PMC8550792, “Evolution of kinase polypharmacology across HSP90 drug discovery” (Cell Chemical Biology, 2021).

Legend:
LYN B = target: T1, LYN B (Homo sapiens, UniProt P07948); assay: HotSpot in vitro kinase radiometric assay; format: biochemical
T1 construct: purchased Reaction Biology (HotSpot contract assay)
Procedure, shortened: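 Radiometric filter-binding read-out of 32P/33P-labelled phosphoproduct captured on filter paper. Reactions contain kinase, substrate, cofactors and ɣ-labelled ATP plus test compound; no modified substrate or coupling enzyme used.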

ABL1 = ABL1 (Homo sapiens, UniProt P00519); assay: HotSpot in vitro kinase radiometric assay; format: biochemical; design: purchased Reaction Biology (HotSpot contract assay)
DDR1 = DDR1 (Homo sapiens, UniProt Q08345); assay: HotSpot in vitro kinase radiometric assay; format: biochemical; design: purchased Reaction Biology (HotSpot contract assay)
ABL2/ARG = target: T2, ABL2/ARG (Homo sapiens, UniProt P42684); assay: HotSpot in vitro kinase radiometric assay; format: biochemical
T2 construct: purchased Reaction Biology (HotSpot contract assay)

YES/YES1 = target: T3, YES/YES1 (Homo sapiens, UniProt P07947); assay: HotSpot in vitro kinase radiometric assay; format: biochemical
T3 construct: purchased Reaction Biology (HotSpot contract assay)

HSP90AB1 = system: HSP90AB1; design: method as in ChEMBL23 (accessed: 23/08/2018); details: average of reported values; ref ChEMBL23 (accessed: 23/08/2018); cited from earlier work

Chain of DDR1 (Q08345 19-913): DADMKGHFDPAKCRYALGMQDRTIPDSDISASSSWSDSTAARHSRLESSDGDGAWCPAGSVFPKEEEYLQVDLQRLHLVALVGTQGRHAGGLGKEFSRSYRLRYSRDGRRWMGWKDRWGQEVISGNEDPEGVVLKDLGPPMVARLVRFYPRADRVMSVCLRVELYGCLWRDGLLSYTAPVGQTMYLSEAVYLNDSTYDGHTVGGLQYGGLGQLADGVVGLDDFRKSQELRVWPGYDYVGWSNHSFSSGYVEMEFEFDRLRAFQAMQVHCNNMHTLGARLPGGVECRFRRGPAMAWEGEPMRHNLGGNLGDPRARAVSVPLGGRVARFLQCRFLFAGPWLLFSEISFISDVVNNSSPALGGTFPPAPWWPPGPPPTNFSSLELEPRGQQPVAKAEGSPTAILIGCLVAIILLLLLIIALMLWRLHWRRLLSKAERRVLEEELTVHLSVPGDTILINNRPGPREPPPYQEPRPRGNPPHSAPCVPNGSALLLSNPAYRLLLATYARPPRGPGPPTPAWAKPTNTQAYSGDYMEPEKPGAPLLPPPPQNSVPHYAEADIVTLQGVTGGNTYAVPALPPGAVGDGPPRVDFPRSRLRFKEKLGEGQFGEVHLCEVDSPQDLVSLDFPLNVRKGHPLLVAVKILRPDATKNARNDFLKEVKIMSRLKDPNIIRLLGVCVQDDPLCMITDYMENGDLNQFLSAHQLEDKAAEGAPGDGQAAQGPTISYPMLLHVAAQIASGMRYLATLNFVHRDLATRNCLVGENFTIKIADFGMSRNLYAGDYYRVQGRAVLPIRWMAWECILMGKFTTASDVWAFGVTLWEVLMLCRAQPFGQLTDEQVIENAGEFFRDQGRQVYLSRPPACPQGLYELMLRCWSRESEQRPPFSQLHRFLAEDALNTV
Chain of ABL1 (P00519 whole entry): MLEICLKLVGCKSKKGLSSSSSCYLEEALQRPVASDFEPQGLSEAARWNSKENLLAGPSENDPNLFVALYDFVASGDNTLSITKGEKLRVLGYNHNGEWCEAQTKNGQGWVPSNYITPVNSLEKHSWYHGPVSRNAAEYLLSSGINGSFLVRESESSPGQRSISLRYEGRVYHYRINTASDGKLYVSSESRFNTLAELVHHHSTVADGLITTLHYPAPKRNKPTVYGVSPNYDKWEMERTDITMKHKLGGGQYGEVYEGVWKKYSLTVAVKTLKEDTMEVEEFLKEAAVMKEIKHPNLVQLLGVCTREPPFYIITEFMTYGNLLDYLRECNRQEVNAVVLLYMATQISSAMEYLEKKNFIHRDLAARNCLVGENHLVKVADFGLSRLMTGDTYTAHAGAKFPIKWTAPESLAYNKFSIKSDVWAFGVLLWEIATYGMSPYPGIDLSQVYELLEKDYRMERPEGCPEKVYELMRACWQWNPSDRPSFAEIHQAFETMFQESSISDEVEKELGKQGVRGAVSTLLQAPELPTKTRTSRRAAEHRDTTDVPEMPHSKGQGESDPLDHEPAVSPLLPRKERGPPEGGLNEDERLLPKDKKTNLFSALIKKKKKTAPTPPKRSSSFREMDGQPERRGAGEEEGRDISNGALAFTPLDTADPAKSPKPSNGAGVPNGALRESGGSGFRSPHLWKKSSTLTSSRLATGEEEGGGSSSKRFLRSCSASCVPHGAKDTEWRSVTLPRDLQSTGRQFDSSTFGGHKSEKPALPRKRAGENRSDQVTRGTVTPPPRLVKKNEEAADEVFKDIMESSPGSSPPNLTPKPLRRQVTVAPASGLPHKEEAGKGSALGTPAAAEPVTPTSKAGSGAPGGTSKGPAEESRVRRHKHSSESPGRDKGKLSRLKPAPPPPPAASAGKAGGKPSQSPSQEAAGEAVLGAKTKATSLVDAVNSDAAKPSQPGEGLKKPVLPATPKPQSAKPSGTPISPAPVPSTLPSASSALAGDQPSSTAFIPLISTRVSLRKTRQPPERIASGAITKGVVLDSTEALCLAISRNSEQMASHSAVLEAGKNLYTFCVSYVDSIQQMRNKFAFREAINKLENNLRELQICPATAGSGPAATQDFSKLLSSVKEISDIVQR
T1 sequence (P07948 1-491 isoform P07948-2): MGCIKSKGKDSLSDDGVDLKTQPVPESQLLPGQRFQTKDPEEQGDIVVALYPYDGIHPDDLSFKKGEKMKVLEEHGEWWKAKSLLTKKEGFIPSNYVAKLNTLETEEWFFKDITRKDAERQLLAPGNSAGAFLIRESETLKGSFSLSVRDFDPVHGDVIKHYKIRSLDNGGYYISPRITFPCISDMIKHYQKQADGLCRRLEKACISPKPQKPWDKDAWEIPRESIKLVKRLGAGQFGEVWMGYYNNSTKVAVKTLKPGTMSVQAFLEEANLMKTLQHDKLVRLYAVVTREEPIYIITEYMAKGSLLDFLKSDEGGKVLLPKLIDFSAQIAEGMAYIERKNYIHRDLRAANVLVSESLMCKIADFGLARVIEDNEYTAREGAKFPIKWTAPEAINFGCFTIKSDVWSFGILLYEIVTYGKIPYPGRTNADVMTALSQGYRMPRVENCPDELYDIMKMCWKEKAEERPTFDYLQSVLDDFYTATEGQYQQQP
T2 sequence (P42684 whole entry): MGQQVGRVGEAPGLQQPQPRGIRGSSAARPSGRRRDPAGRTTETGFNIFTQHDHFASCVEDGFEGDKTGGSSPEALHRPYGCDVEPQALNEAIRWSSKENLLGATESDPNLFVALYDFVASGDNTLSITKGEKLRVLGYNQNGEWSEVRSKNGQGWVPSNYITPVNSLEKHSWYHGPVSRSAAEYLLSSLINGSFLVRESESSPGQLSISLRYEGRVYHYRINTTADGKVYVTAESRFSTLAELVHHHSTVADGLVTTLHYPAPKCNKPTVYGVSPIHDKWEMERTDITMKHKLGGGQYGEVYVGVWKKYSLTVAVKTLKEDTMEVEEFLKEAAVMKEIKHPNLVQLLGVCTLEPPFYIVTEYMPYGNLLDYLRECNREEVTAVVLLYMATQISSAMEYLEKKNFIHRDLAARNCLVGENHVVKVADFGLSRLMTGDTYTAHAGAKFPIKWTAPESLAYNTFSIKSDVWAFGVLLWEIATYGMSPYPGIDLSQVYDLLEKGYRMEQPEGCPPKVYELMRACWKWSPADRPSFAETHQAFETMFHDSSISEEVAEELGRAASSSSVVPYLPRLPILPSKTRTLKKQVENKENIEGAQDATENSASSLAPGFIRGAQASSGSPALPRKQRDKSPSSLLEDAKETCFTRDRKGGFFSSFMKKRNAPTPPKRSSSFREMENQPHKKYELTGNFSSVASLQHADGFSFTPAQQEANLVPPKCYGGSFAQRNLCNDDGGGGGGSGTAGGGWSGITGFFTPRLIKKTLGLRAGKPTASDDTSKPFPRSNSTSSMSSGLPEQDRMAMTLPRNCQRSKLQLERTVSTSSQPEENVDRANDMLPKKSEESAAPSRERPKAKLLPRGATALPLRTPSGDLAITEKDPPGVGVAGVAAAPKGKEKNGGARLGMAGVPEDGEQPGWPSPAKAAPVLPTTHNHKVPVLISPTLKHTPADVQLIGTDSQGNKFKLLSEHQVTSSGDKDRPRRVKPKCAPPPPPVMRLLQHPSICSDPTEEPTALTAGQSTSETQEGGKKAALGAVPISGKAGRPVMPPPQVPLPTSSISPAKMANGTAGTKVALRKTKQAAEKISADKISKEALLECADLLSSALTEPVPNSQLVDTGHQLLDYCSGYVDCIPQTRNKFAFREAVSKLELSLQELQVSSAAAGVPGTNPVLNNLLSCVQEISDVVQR
T3 sequence (P07947 whole entry): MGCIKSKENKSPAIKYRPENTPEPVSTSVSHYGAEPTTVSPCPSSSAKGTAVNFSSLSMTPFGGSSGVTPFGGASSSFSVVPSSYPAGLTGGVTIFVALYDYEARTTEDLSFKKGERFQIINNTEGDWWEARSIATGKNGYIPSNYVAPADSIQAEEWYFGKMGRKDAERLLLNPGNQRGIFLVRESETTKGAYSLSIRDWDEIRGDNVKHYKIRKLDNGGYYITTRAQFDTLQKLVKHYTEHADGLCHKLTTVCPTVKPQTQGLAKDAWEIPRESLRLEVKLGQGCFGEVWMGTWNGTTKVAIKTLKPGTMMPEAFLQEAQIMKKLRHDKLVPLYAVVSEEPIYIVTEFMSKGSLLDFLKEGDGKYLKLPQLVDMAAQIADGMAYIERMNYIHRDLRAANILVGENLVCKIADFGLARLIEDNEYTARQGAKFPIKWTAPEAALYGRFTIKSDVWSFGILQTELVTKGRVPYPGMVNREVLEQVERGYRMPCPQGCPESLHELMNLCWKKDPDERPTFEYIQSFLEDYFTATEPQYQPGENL

- % Enzyme Activity (relative to DMSO controls) (LYN B; LYN B, 10uM, ATP 20 uM, Data 1, Data 2): 103.45%
- remaining activity at 10 µM (LYN B; LYN B, 10uM, ATP 20 uM, Data 1, Data 2, read-out: % Enzyme Activity (relative to DMSO controls)): 105%
- inhibition at 10 µM (LYN B; read-out: % inhibition at 10 uM: LYN B, 10 μM, Fig 6C median ± standard deviation (n = 2)): -4 ± 1%
- % Enzyme Activity (relative to DMSO controls) (ABL1; ABL1, 10uM, ATP 40 uM, Data 1, Data 2): 99.15%
- remaining activity at 10 µM (ABL1; ABL1, 10uM, ATP 40 uM, Data 1, Data 2, read-out: % Enzyme Activity (relative to DMSO controls)): 96%
- inhibition at 10 µM (ABL1; read-out: % inhibition at 10 uM: ABL1, 10 μM, Fig 6C median ± standard deviation (n = 2)): 2 ± 2%
- % Enzyme Activity (relative to DMSO controls) (DDR1; DDR1, 10uM, ATP 100 uM, Data 1, Data 2): 93.93%
- remaining activity at 10 µM (DDR1; DDR1, 10uM, ATP 100 uM, Data 1, Data 2, read-out: % Enzyme Activity (relative to DMSO controls)): 90.3%
- inhibition at 10 µM (DDR1; read-out: % inhibition at 10 uM: DDR1, 10 μM, Fig 6C median ± standard deviation (n = 2)): 8 ± 3%
- % Enzyme Activity (relative to DMSO controls) (ABL2/ARG; ABL2/ARG, 10uM, ATP 30 uM, Data 1, Data 2): 107.1%
- remaining activity at 10 µM (ABL2/ARG; ABL2/ARG, 10uM, ATP 30 uM, Data 1, Data 2, read-out: % Enzyme Activity (relative to DMSO controls)): 99.9%
- inhibition at 10 µM (ABL2/ARG; read-out: % inhibition at 10 uM: ABL2, 10 μM, Fig 6C median ± standard deviation (n = 2)): -4 ± 5%
- % Enzyme Activity (relative to DMSO controls) (YES/YES1; YES/YES1, 10uM, ATP 50 uM, Data 1, Data 2): 96.18%
- remaining activity at 10 µM (YES/YES1; YES/YES1, 10uM, ATP 50 uM, Data 1, Data 2, read-out: % Enzyme Activity (relative to DMSO controls)): 102%
- inhibition at 10 µM (YES/YES1; read-out: % inhibition at 10 uM: YES, 10 μM, Fig 6C median ± standard deviation (n = 2)): 1 ± 4%
SMILES: CCNC(=O)c1noc(-c2cc(Cl)c(O)cc2O)c1-c1ccc(OC)cc1 [VER-50589]
- pActivity, HSP90AB1 (HSP90AB1): 7.55
